This note sets out measurements from ChEMBL document CHEMBL1152690, “The spirocyclopropyl moiety as a methyl surrogate in the structure of l-fucosidase and l-rhamnosidase inhibitors” (Bioorg Med Chem, 2009).

Active and inactive are the calls of the source. No cut-off for these calls is given here.

The nature of assay [1]: Inhibition of Penicillium decumbens Alpha-L-rhamnosidase by para-nitrophenolate release assay.
Assay [2] deals with Aspergillus niger. The assay can be described thus: Inhibition of Aspergillus niger beta-xylosidase at 1 mM.
Assay [3] deals with T1, Tissue alpha-L-fucosidase (Bos taurus) (UniProt Q2KIM0).
T1 sequence (whole entry): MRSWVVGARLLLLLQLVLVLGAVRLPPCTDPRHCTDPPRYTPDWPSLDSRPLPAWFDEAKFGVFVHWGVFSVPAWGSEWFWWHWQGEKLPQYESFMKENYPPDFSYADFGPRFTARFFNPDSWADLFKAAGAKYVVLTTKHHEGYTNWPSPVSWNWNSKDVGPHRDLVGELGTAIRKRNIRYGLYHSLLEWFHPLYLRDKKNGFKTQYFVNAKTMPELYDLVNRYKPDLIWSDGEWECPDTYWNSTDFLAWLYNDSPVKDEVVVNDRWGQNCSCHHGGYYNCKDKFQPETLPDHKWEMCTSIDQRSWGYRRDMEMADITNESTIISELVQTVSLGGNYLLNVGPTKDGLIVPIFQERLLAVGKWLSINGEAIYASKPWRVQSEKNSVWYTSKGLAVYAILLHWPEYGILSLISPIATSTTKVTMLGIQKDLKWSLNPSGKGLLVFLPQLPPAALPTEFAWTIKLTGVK
Put plainly: Inhibition of bovine kidney alpha-L-fucosidase at 1 mM by para-nitrophenolate release assay.

The test system of assay [4] is Coffea arabica. Put plainly: Inhibition of coffee bean alpha-galactosidase at 1 mM.
For assay [5], the system named is Prunus dulcis. The assay can be described thus: Inhibition of almond beta-glucosidase at 1 mM.
Assay [6] concerns Canavalia ensiformis. Put plainly: Inhibition of jack bean alpha-mannosidase at 1 mM.
For assay [7], the target named is T2, Beta-galactosidase (Aspergillus oryzae) (UniProt Q2U7N3).
T2 sequence (whole entry): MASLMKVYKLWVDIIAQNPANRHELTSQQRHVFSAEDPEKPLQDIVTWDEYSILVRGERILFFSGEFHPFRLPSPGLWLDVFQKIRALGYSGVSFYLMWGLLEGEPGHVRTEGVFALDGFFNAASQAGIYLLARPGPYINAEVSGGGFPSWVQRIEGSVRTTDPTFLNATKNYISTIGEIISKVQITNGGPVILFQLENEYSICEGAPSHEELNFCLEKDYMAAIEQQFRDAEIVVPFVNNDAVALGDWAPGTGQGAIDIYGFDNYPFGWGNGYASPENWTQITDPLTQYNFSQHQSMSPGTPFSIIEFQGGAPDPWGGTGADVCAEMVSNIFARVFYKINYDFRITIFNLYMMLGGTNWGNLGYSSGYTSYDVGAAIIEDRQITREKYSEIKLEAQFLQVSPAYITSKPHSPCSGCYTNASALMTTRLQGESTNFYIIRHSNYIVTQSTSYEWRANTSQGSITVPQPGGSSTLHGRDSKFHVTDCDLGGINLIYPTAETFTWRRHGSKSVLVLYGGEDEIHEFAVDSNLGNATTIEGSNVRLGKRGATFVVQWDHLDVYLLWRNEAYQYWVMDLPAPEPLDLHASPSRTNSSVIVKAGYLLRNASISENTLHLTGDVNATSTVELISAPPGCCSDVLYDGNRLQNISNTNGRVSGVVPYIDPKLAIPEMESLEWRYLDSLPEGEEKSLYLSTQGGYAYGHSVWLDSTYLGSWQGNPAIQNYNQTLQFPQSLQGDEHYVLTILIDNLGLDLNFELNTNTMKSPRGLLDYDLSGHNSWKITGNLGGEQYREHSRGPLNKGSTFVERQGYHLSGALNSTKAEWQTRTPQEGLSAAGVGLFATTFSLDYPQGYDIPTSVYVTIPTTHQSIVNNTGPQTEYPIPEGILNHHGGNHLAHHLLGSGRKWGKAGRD
Put plainly: Inhibition of Aspergillus oryzae beta-galactosidase at 1 mM.

Assay [8] relates to Canavalia ensiformis. Put plainly: Inhibition of jack bean beta-N-acetylglucosaminidase at 1 mM.
The subject of assay [9] is Aspergillus niger. Put plainly: Inhibition of Aspergillus niger amyloglucosidase at 1 mM.
Assay [10] deals with Beta-galactosidase (Escherichia coli) (UniProt Q8VNN2). Put plainly: Inhibition of Escherichia coli beta-galactosidase at 1 mM.
The subject of assay [11] is Saccharomyces cerevisiae. The assay can be described thus: Inhibition of yeast alpha-glucosidase at 1 mM.
Assay [12] relates to Oryza sativa. The assay can be described thus: Inhibition of rice alpha-glucosidase at 1 mM.
Assay [13] concerns Helix pomatia. Put plainly: Inhibition of snail beta-mannosidase at 1 mM.
Assay [14] relates to Penicillium decumbens. Put plainly: Inhibition of Penicillium decumbens Alpha-L-rhamnosidase at 1 mM by para-nitrophenolate release assay.
The species named for assay [15] is Bos taurus. The assay can be described thus: Inhibition of bovine kidney beta-N-acetylglucosaminidase at 1 mM.
Assay [16] addresses T1, Tissue alpha-L-fucosidase (Bos taurus). The note with it: 1 mM.
Description: Inhibition of bovine lysosomal alpha-L-fucosidase at 1 mM by para-nitrophenolate release assay
Assay [17] relates to Penicillium decumbens. The assay can be described thus: Inhibition of Penicillium decumbens lysosomal Alpha-L-rhamnosidase at 1 mM by para-nitrophenolate release assay.
The target of assay [18] is T3, Tissue alpha-L-fucosidase (Bos taurus, UniProt Q2KIM0).
T3 sequence (Q2KIM0 whole entry): T1 sequence (whole entry)
The assay can be described thus: Inhibition of bovine kidney alpha-L-fucosidase by para-nitrophenolate release assay.

Chain of Beta-galactosidase (Escherichia coli) (Q8VNN2 whole entry, looked up): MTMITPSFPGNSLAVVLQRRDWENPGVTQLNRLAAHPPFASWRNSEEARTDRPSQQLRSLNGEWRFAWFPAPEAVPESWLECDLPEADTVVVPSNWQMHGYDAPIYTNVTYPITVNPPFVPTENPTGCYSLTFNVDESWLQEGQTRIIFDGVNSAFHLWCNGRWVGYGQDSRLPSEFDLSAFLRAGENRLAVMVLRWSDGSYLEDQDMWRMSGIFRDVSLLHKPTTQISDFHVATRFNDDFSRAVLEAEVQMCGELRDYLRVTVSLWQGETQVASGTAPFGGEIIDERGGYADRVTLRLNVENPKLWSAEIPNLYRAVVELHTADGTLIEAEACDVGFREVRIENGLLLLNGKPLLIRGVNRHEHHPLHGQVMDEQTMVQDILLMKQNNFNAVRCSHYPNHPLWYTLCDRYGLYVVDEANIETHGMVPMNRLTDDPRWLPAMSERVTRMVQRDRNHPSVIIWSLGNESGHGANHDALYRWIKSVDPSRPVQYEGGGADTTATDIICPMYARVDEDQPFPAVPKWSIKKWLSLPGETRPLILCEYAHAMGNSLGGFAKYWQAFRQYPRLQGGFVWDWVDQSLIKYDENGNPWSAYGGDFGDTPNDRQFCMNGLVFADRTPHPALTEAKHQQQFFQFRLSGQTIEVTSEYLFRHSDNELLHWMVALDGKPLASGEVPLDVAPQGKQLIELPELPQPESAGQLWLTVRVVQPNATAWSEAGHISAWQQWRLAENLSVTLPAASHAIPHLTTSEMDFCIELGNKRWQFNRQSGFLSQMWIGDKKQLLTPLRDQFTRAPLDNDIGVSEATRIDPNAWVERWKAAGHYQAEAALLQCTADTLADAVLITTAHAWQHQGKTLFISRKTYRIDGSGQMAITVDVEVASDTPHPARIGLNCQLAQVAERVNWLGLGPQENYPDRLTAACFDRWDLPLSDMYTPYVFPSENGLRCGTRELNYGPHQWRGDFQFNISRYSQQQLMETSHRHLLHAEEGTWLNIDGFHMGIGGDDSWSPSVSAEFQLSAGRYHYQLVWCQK

For the molecule `C[C@@H]1N=C[C@H](O)[C@H]1O`, affinity in assay [1] was put at a Ki of 140 nM.

On to `O[C@H]1C=NC2(CC2)[C@H]1O`, for which the inhibition result in [2], in [4], in assay [5], in assay [6], in [7] and in assay [8] was “inactive” each time. Moreover, the inhibition result in assay [9], in assay [10], in assay [11], in [12], in assay [13] and in assay [15] was “inactive” in each case. Moreover, the inhibition (in general, the change of the read-out against control, counted positive when it falls) amounted to 76% in assay [3] and 87% in [14]. Besides, in assay [1], the inhibition constant (Ki) (commonly the equilibrium dissociation constant of an inhibitor or competing ligand from its target) was 57000 nM.

In the case of `C[C@@H]1NC[C@H](O)[C@H](O)[C@H]1O`, the inhibition entry in assay [16] and in assay [17] was “inactive” throughout. In addition, the inhibition in assay [14] was determined as 0%.

As for `C[C@@H]1N=C[C@H](O)[C@@H]1O`, the Ki in assay [18] came out at 10 nM.

Turning to `C[C@H]1NC[C@H](O)[C@H](O)[C@H]1O`, the Ki in [18] and in assay [1] was 1000 nM in each case. In assay [3], this molecule gave an inhibition of 99%.

Consider `C[C@@H]1NC[C@H](O)[C@H]1O`, for which the Ki in assay [1] came to 5500 nM.

On to `O[C@@H]1[C@@H](O)C2(CC2)NC[C@@H]1O`, for which the inhibition result in [2], in assay [3], in assay [4], in [5], in [6] and in [7] was “inactive” each time. Besides, the inhibition entry in [8], in assay [9], in assay [10], in [11], in assay [12] and in assay [13] was “inactive” each time. For the same molecule, the inhibition entry in [15] is “inactive”. In assay [14], this molecule returned an inhibition of 72%.

The molecule `C[C@@H]1N[C@@H](O)[C@@H](O)[C@H](O)[C@@H]1O` showed a Ki in assay [18] of 1 nM.

Take `C[C@@H]1C[C@H](O)C2[C@@H](O)[C@@H](O)CN2C1` (single isomer, unassigned): the inhibitory constant (Ki) in assay [1] worked out at 30 nM.

In the case of `O[C@H]1[C@H](O)CNC2(CC2)[C@H]1O`, the inhibition entry in assay [2], in assay [4], in assay [5], in assay [6], in [7] and in [8] was “inactive” in each case. The inhibition entry in assay [9], in assay [10], in assay [11], in [12], in assay [13] and in [14] was “inactive” in each case. In addition, the inhibition result in assay [15] is “inactive”. Besides, in [18], the Ki worked out at 18000 nM. Further, the inhibition in assay [3] was 83%.

For the molecule `COc1ccc(C[C@@H]2NC[C@H](O)[C@H]2O)cc1`, in assay [1], the inhibition constant (Ki) was determined as 3000 nM.

For the molecule `O[C@@H]1[C@@H](O)C=NC12CC2`, the inhibition entry in [2], in assay [4], in [5], in assay [6], in [7] and in [8] was “inactive” each time. Further, the inhibition entry in assay [9], in assay [10], in [11], in [12], in assay [13] and in assay [15] was “inactive” throughout. The inhibition in assay [3] is 19%; in assay [14], 72%.

Regarding `COc1ccc(C[C@@H]2NC[C@@H](O)[C@H]2O)cc1`, the Ki in [1] was 3200 nM.
